Reference: ChEMBL document CHEMBL3137667, “[Drug-induced liver injury; fourteenth updated edition of the bibliographic database of liver injuries and related drugs]” (Gastroenterol Clin Biol, 2004)

Tests used:
[1] = human
[2] = human; remark: listed apart in the source
[3] = human, serum
[4] = human; remark: listed apart in the source
[5] = human; remark: listed apart in the source
[6] = human; remark: listed apart in the source
[7] = Times to onset, minimal and maximal, observed in the indexed observations. [column 'DELAI' in source]; conditions: human
[8] = human; remark: listed apart in the source
[9] = human, serum; remark: listed apart in the source
[10] = human; remark: listed apart in the source
[11] = human; remark: listed apart in the source
[12] = Highest frequency of acute liver toxicity observed during clinical trials, expressed as a percentage. [column '% AIGUE' in source]; conditions: human
[13] = Highest frequency of moderate liver toxicity observed during clinical trials, expressed as a percentage. [column '% BIOL' in source]; conditions: human
[14] = human; remark: listed apart in the source
[15] = human, serum, 4383 h
[16] = Comments (NB not yet translated). [column 'COMMENTAIRES' in source]; conditions: human
[17] = human; remark: listed apart in the source
[18] = Proposed mechanism(s) of liver damage. [column 'MEC' in source]; conditions: human
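Throughout, for Hepatotoxicity (association with vascular disease): count of indexed literature references reporting vascular liver injury in humans, e.g. peliosis hepatitis, hepatic veno-occlusive disease or Budd-Chiari syndrome.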
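Throughout, for Hepatotoxicity (benign tumour): value is a count of indexed literature references citing a benign tumour confirmed by histopathology.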
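Throughout, for Hepatotoxicity (choleostasis): human cholestatic liver injury, shown by histopathology or by peak ALT or AST elevation over alkaline phosphatase ratio below 2, value counts indexed literature reports.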
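Throughout, for Hepatotoxicity (chronic liver disease): chronic liver injury confirmed by histopathology or persistently raised serum aminotransferase activity beyond 6 months, value given as the count of indexed literature references.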
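Throughout, for Hepatotoxicity (cirrhosis): value is a count of indexed literature references reporting cirrhosis confirmed by histopathology.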
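Throughout, for Hepatotoxicity (cytolytic): human cytolytic liver injury, shown by histopathology or by a ratio above 5 of peak ALT or AST elevation to alkaline phosphatase elevation, value counts indexed references.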
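Throughout, for Hepatotoxicity (granulomatous hepatitis): value is a count of indexed literature references reporting granulomatous liver disease confirmed by histopathology.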
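Throughout, for Hepatotoxicity (malignant tumour): malignant tumour confirmed by histopathology, value gives the count of indexed literature references reporting it.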
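Throughout, for Hepatotoxicity (severe hepatitis): human clinical data: severe hepatitis, meaning potentially life-threatening liver failure or clinically observed cases, the value counts how many indexed literature references report it.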
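Throughout, for Hepatotoxicity (steatosis): steatosis confirmed by histopathology, value is the count of indexed references.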

| Compound | Hepatotoxicity (benign tumour) [1] | Hepatotoxicity (association with vascular disease) [2] | Hepatotoxicity (acute) [3] | Hepatotoxicity (choleostasis) [4] | Hepatotoxicity (cytolytic) [5] | Hepatotoxicity (cirrhosis) [6] | Hepatotoxicity (time to onset) [7] | Hepatotoxicity (steatosis) [8] | Hepatotoxicity (moderate) [9] | Hepatotoxicity (malignant tumour) [10] | Hepatotoxicity (granulomatous hepatitis) [11] | Hepatotoxicity (acute) [12] [%] | Hepatotoxicity (moderate) [13] [%] | Hepatotoxicity (animal toxicity known) [14] | Hepatotoxicity (chronic liver disease) [15] | Hepatotoxicity (comment) [16] | Hepatotoxicity (severe hepatitis) [17] | Hepatotoxicity (mechanism) [18] | other results |
| --- | --- | --- | --- | --- | --- | --- | --- | --- | --- | --- | --- | --- | --- | --- | --- | --- | --- | --- | --- |
| CCCCNC(=O)NS(=O)(=O)c1ccc(N)cc1 [CARBUTAMIDE] | 0 | 0 | 5 | 0 | 1 | 0 | 2 weeks - 4 weeks | 0 | 1 | 0 | 0 | 1.5 | 30 | yes | 0 | RC/METAHEXAMIDE | 3 |  |  |
| CCC[C@@H]1C[C@@H](C(=O)N[C@@H]([C@H]2O[C@H](SC)[C@H](O)[C@@H](O)[C@H]2O)[C@H](C)Cl)N(C)C1 [CLINDAMYCIN] | 0 |  | 5 | 1 | 2 | 0 | 2 days - 17 days | 0 | 15 | 0 | 1 | 0 | 52 | yes | 1 | #CBP | 0 |  |  |
| CCOC(=O)C(C)(C)Oc1ccc(Cl)cc1 [CLOFIBRATE] | 1 | 0 | 3 | 1 | 2 | 0 | 2 months - 7 years | 1 | 4 | 0 | 1 | 0 | 19.7 | yes | 0 | RC/FENOFIBRATE | 0 |  |  |
| COc1cc2c(c(OC)c1OC)-c1ccc(OC)c(=O)cc1[C@@H](NC(C)=O)CC2 [COLCHICINE] | 0 | 0 | 7 | 0 | 3 | 0 | 2 hours - 2 days | 0 | 2 | 0 | 0 | 0 | 28.6 | yes | 0 |  | 0 | Overdose |  |
| C[C@@H](CN1CC(=O)NC(=O)C1)N1CC(=O)NC(=O)C1 [DEXRAZOXANE] | 0 | 0 | 0 | 0 | 0 | 0 | 1 week | 0 | 3 | 0 | 0 | 0 | 13 | yes | 0 |  | 0 | Dose-dependant |  |
| CCOc1ccc(NC(C)=O)cc1 [PHENACETIN] | 0 | 0 | 4 | 0 | 0 | 0 | 2 days - 2 years | 1 | 2 | 0 | 2 | 0 | 0 | yes | 0 |  | 0 | Dose-dependant |  |
| Nc1ccc(/N=N/c2ccccc2)c(N)n1 [PHENAZOPYRIDINE] | 0 | 0 | 2 | 2 | 0 | 0 | 1 week | 0 | 4 | 0 | 0 | 0 | 0 | yes | 0 |  | 0 | Allergic, Toxic Metabolite |  |
| CO[C@H](C(=O)[C@@H](O)[C@@H](C)O)[C@@H]1Cc2cc3cc(O[C@H]4C[C@@H](O[C@H]5C[C@@H](O)[C@H](O)[C@@H](C)O5)[C@H](O)[C@@H](C)O4)c(C)c(O)c3c(O)c2C(=O)[C@H]1O[C@H]1C[C@@H](O[C@H]2C[C@@H](O[C@H]3C[C@](C)(O)[C@H](O)[C@@H](C)O3)[C@@H](O)[C@@H](C)O2)[C@H](O)[C@@H](C)O1 [PLICAMYCIN] | 0 | 0 | 6 | 0 | 6 | 0 | 4 days | 1 | 24 | 0 | 0 | 0 | 100 | yes | 0 |  | 3 | Dose-dependant |  |
| COc1cc(NC(C)CCCN)c2ncccc2c1 (configuration not stated) [PRIMAQUINE] | 0 | 0 | 1 | 0 | 1 | 0 | 2 days | 0 | 0 | 0 | 0 | 0 | 0 | yes | 0 |  | 0 | Overdose |  |
| Cc1ccc(C(=O)c2cc(O)c(O)c([N+](=O)[O-])c2)cc1 [TOLCAPONE] | 0 | 0 | 6 |  |  | 0 | 1 month - 6 months | 0 | 6 | 0 |  |  |  | yes | 0 |  |  |  | Hepatotoxicity (mechanism) ([18]; Liver): Mitochondrial toxicity; Hepatotoxicity (choleostasis) ([4]; Liver): 0; Hepatotoxicity (cytolytic) ([5]; Liver): 6; Hepatotoxicity (granulomatous hepatitis) ([11]; Liver): 0; Hepatotoxicity (acute) ([12]; Liver): 0.7%; Hepatotoxicity (moderate) ([13]; Liver): 14.3%; Hepatotoxicity (severe hepatitis) ([17]; Liver): 5 |
| ClC=C(Cl)Cl [TRICHLOROETHYLENE] | 0 | 0 | 14 | 0 | 14 | 2 | 1 day - 6 weeks | 0 | 1 | 0 | 0 | 0 | 0 | yes | 0 |  | 14 | Toxic Metabolite |  |
| BLEOMYCIN | 0 | 0 | 0 | 0 | 0 | 0 |  | 0 | 1 | 0 | 0 | 0 | 0 | yes | 0 | HYPERBILIRUBINEMIE | 0 |  |  |
